# Laboratory results reported in US12403125B2, “Use of Ovatodiolide against SARS-CoV-2” (Peking University Shenzhen Graduate School, priority 2020, dated 2025).
# Tests used:
# [1] = mice; for number of micronuclei in the reticulocytes vs negative control / number of reticulocytes in peripheral blood vs negative control: 48 and 72 hours after administration
# Procedure: In this experiment, the Formula I compound—Ovatodiolide on the peripheral blood micronucleus was tested in mice (ICR strain). This experiment mainly tested the effect of the Formula I compound—Ovatodiolide on the ratio of the occurrence of micronucleus in the peripheral blood of the mice (in vivo), so as to evaluate the level of damages caused by directly or indirectly triggered gene mutations of erythrocyte chromosomes or mitosis. ICR mice were used as the experimental subjects of this experiment, and the experiment was divided into 5 groups, the negative control group, the positive control group (Cyclophosphamide, 60 mg/kg bw ip), the Formula I compound—Ovatodiolide low dose (0.25 g/kg bw) group, the medium Dosage (0.5 g/kg bw) group and the high dose (1 g/kg bw) group, 5 mice (male) in each group, and Ovatodiolide was fed once by a gastric tube, 48 and 72 hours after the tested substances were administered, the reticulocytes and the occurrence (%) of micronucleus in the reticulocytes in the peripheral blood of the mice were evaluated.
# SARS-CoV-2 pseudovirus = assay: microbe, parasite or virus in culture; type: cell-based
# [2] = Single-dose oral acute toxicity test in rats; type: in vivo, rats (Sprague-Dawley, S D strain)
# Procedure: This example was a single-dose oral acute toxicity safety test of the Formula I compound—Ovatodiolide in rats, and a reference for food safety assessment was provided. […] In this experiment, single-dose oral acute toxicity tests of the Formula I compound—ovatodiolide were conducted in rats (Sprague-Dawley, S D strain). The Formula I compound—Ovatodiolide was in the form of yellowish crystals, the test purity was 99.95%, 10% of DMSO was used to prepare a solution concentration of 0.1 g/mL during the experiment, the feeding volume of each rat was 10 mL/kg body weight, the rats were fed orally based on their body weights on that day, the final dose was 1 g/kg-body weight in total, and the rats were continuously observed for 14 days after administration. […] No effects on the serum liver and kidney enzyme values of the male and female rats in the treatment group, including aspartate aminotransferase (AST), alanine aminotransferase (ALT), blood urea nitrogen (BUN), and creatinine, etc.
# [3] = 28-day feeding (repeated dose oral) toxicity test in rats; type: in vivo, rats (Sprague-Dawley, S D strain)
# Procedure: This experiment investigated whether the Formula I compound—Ovatodiolide might cause potential side effect toxicity to human bodies for clinical safety assessment, and 28-day repeated-dose oral toxicity tests of the Formula I compound—Ovatodiolide were conducted to observe clinical side effects. The Formula I compound—Ovatodiolide was a yellowish crystal, the test purity was regarded as 99.95%, and the samples were prepared with 5% of DMSO during the tests. Rats (Sprague-Dawley, S D strain) were divided into 4 groups, the control group (5% of DMSO), the low-dose group (10 mg/kg-body weight), the medium-dose group (25 mg/kg body weight) and the high-dose group (50 mg/kg-body weight), 20 rats in each group, half males and half females, each rat was fed with a volume of 10 mL/kg-body weight, and the rats were orally fed according to their body weight on the day for 28 consecutive days. […] In view of the above test results, after the rats of the low-dose group (10 mg/kg-body weight), the medium-dose group (25 mg/kg-body weight) and the high-dose group (50 mg/kg-body weight) were orally fed respectively with the Formula I compound—Ovatodiolide for 28 days continuously, no toxic reactions was caused to various organs of the male and female rats, and the “No observed adverse effect level” (NOAEL) for the 28-day feeding toxicity test in rats was 50 mg/kg-body weight, the equivalent human dose was about 8 mg/kg-body weight.
# CHO-K1 cells = assay: In vitro mammalian chromosome aberration test, with cytotoxicity test; type: cell-based; settings: for survival rate of the CHO-K1 cells: 24 hours
# Procedure: In this experiment, the chromosomal aberration test with mammalian cell in culture of the Formula I compound—Ovatodiolide was carried out. The Formula I compound—Ovatodiolide was yellowish crystals, and prepared with Dimethyl sulfoxide (DMSO) during the test. The cytotoxicity test was divided into two parts, in one part, CHO-K1 cells was reacted directly with the Formula I compound—Ovatodiolide, and in the other part, rat liver activating enzyme extract (S9) was used to simulate human metabolism, CHO-K1 cells, the rat liver activating enzyme extract (S9) and the Formula I compound—Ovatodiolide were mixed and then reacted.
# influenza virus = assay: Test experiments on influenza virus in contrast to Tamiflu
# HIV virus = settings: Fitoterapia, 2000, 71(5): 574-576; cited from earlier work
# [4] = male and female rats, 1 g/kg-body weight oral
structure (smiles),measurement,setting,value
"O=P1(N(CCCl)CCCl)NCCCO1 (stereo not drawn) [Cyclophosphamide, reference compound]",number of micronuclei in the reticulocytes vs negative control,[1],increased significantly
same,number of reticulocytes in peripheral blood vs negative control,[1],significantly decreased
C=C1C(=O)O[C@@H]2/C=C(\C)C[C@H]3C=C(CC/C=C(\C)CC[C@@H]12)C(=O)O3 [Ovatodiolide],inhibitory effect on coronavirus infections,SARS-CoV-2 pseudovirus,significant inhibitory effect on coronavirus infections at the micromolar level
same,IC50,"SARS-CoV-2 pseudovirus; Severe acute respiratory syndrome-related coronavirus, Huh-7, 64 h, read-out: IC50 for inhibiting SARS-CoV-2 infections",3.73 µM
same,equivalent human dose of the single acute dose,[2]; from 1 g/Kg-body weight in rats,about 50 mg/kg-body weight
same,"blood values (WBC, RBC, Hct, MCV, MCH, MCHC, platelets, leukocyte classification)",[2]; [4],no significant abnormal changes
same,"serum liver and kidney enzyme values (AST, ALT, BUN, creatinine)",[2]; [4],No effects
same,weekly body weight and body weight gain vs control group,[2]; [4],no significant difference
same,histopathological examination of important organs,"[2]; rats, 1 g/kg-body weight oral",no histopathological changes in relation to the test substances
same,acute poisoning or death,"[2]; rats, single oral dose 1 g/Kg-body weight, observed 14 days",no acute poisoning or death
same,equivalent human dose of the NOAEL,"[3]; from rat NOAEL, 28-day feeding",about 8 mg/kg-body weight
same,histopathological examination of organs,"[3]; high-dose group (50 mg/kg-body weight), 28 days",no pathological changes related to organ toxicity reaction
same,"body weight changes, feed consumptions, urine, blood values, serum enzyme values and organ weights vs control","[3]; male and female rats, each treatment group, 28 days",within the normal range
same,symptoms of being poisoned or death,"[3]; rats, oral 10, 25 and 50 mg/kg-body weight, 28 days",no symptoms of being poisoned or death
same,No observed adverse effect level (NOAEL),"[3]; rats, oral, 28 consecutive days",50 mg/kg-body weight
same,survival rate of the CHO-K1 cells,"CHO-K1 cells; 17.5 μM, without S9 (−S9)",about 65.6%
same,survival rate of the CHO-K1 cells,"CHO-K1 cells; 75 μM, with S9 (+S9)",about 60.3%
same,frequency of chromosomal aberration in the CHO-K1 cells vs negative control,"CHO-K1 cells; 12.5, 15 and 17.5 μM (−S9) and 55, 65 and 75 μM (+S9)",did not increase significantly
same,number of micronuclei in the reticulocytes vs negative control,[1],no significant difference
same,number of reticulocytes in peripheral blood vs negative control,[1],no significant difference
same,micronucleus test result,[1]; each dose group,negative
same,toxicity symptoms and body weight,"[1]; single gastric tube dose 0.25, 0.5, 1 g/kg bw, 48 and 72 hours",no toxicity symptoms and no differences in the body weight
same,effect on inhibiting influenza virus,influenza virus,excellent effect on inhibiting influenza virus
same,inhibition of HIV virus,HIV virus,can inhibit HIV virus
